These results are taken from patent US9328134B2, “Carbohydrate phosphonate derivatives as modulators of glycosylation” (AMGEN INC., priority 2013, dated 2016).

pIC50: −log10 of the molar value.

The pIC50 is the negative decadic logarithm of the IC50, by convention in mol/L. A low value points to a high IC50. In general, inhibition refers to the change of the read-out against control, counted positive when it falls. For orientation: viability means a read-out of living cells in per cent, often relative to untreated cells.

Data set [1] has as its system cell surface protein fucosylation in CS-9 CHO cells. Nature of the data set: Cell Surface Protein Fucosylation Assay (FACS with FITC-LCA). Format: cell-based, Chinese hamster. As to conditions: Cricetulus griseus, 72 h, 3 days. Here is the method:
Cell Surface Protein Fucosylation Assay
(§1) The effect of the example compounds on cell surface protein fucosylation was measured in CS-9 CHO cells. A range of amounts of example compound was added to produce various concentrations (100 μM-0.005 uM). These were added to cells grown in batch production CHO cell media in Costar 96-well clear round bottom polypropylene plates and incubated at 37° C. in the presence of 5% CO2. Commercially available standard batch production serum free CHO media such as CD OptiCHO (Invitrogen), Power CHO (Lonza), or ExCell 325 PF CHO (commercially available from Sigma Aldrich) may be used in accordance with the assay. After 3 days, cells were analyzed by fluorescence-activated cell sorting (FACS) using FITC-Lens culinaris agglutinin (FITC-LCA, Vector Laboratories Cat#FL-1041) according to the following procedure. After 3 days, 50 uL of FITC-LCA (3 ug/mL) was added to columns 1-11 and plates were incubated for 30 minutes. Plates were then centrifuged briefly (2,000 rpm), and the medium was aspirated away. Cells were washed three times with PBS with 1% BSA, resuspended in the same buffer, and analyzed on the BD LSRii instrument. Cells were simultaneously assayed for viability using propidium iodide.
The following table includes IC50 values obtained using the procedures set forth above for the Example compounds described herein.

The subject of data set [2] is CHO cells expressing anti-TRAIL IgG1 antibody. In words: Production cultures to generate antibodies for glycan analysis (HILIC). Format: cell-based, Chinese hamster. The protocol: Production Cultures to Generate Antibodies for Glycan Analysis
CHO cells expressing anti-TRAIL IgG1 antibody were seeded into serum-free growth medium in deep 24-well plates via 1:5 dilution. Any medium suitable for growth of CHO cells (i.e. PowerCHO by Lonza or OptiCHO by Invitrogen) can be used. The fucosylation inhibitor Example 1 compound was added to the cultures at inoculation at 5, 10, 20, 40, 80, 160 and 320 uM via 1:1000 dilution of stock solutions in DMSO. The cultures were placed into a shaking incubator (50 mm orbital diameter, 36° C., 5% CO2, 220 rpm). The growth and viability of the cultures were monitored throughout the length of the production assay. The cells were fed with feed medium and an amino acid supplement on days 3, 6 and 8. Cultures were harvested on day 10 via centrifugation and spent medium supernatants were submitted for titer analysis and protein A purification. Glycan analysis of purified antibodies was conducted via the HILIC assay.
To test whether daily doses of the Example 1 fucosylation inhibitor would result in higher inhibition profile, CHO cells expressing anti TRAIL IgG1 antibody were seeded into serum-free growth medium in deep 24-well plates via 1:5 dilution. The fucosylation inhibitor compound Example 1 (FIG. 2) and compound Example 3 (FIG. 3) were added to the cultures on a daily basis at 5, 10, 20, 40, 60, 80, and 100 uM levels via 1:1000 dilution of stock solutions in DMSO. The cultures were placed into a shaking incubator (50 mm orbital diameter, 36° C., 5% CO2, 220 rpm). The growth and viability of cultures were monitored throughout the length of the production assay. Starting on day 3, cells were centrifuged at 1000 rpm for 5 minutes, a fraction of the spent medium was removed and cells were replenished with the equivalent volume of production medium. Cultures were harvested on day 10 via a 10 minute centrifugation at 1000 rpm. Spent medium fractions collected during the course of the experiment were submitted for titer analysis. Spent medium fractions corresponding to select time-points were also purified on protein A. Glycan analysis of the purified antibodies is shown in FIGS. 2 and 3.
The PNGase F (New England Biolabs) enzymatically-released N-linked glycans from protein-purified anti-TRAIL IgG1 antibody were labeled with 2-aminobenzoic acid (2-AA) and separated by HILIC (hydrophilic interaction liquid chromatography) in-line with a fluorescence detector. The separation was performed using a Waters Acquity UPLC (Waters, Milford, Mass.). In-line MS, using an ion trap mass spectrometer (LTQ; Thermo Scientific, Waltham, Mass.) in positive mode, was incorporated to accommodate mass determination of species. Glycans were injected and bound to the column in high organic conditions and were then eluted with an increasing gradient of an aqueous ammonium formate buffer. Fast separation times were achieved using a […] small particle column format (Acquity UPLC BEH Glycan Column, 2.1×100 mm; Waters, Milford, Mass.). Total runtime including column re-equilibration for the MS compatible separation was 30 minutes. Glycan from cells treated with 320 uM Example 1 compound was 64% fucosylated vs. 77% for DMSO control, and contained 13% high mannose vs. 12% for DMSO control.

Data set [3] is described as follows: Cell viability by propidium iodide, run with the fucosylation assay. Format: cell-based, Chinese hamster. As to conditions: Chinese hamster, 100 μM, CS-9 CHO cells, read-out: Cell Viability max activity at 100 μM. The protocol:
as §1

In data set [4] the test system is CS-9 CHO cells. Described as above. Format: cell-based, Chinese hamster. The note with it: Cricetulus griseus, 72 h, 3 days. Here is the method: as §1
Data set [5] can be described thus: Stability of inhibitor in the culture medium. The format is physicochemical. As to conditions: cell culture medium.
The nature of data set [6]: Cell viability by propidium iodide, run with the high mannose assay. The format is cell-based, Chinese hamster. The note with it: Chinese hamster, 100 μM, CS-9 CHO cells, read-out: Cell Viability max activity at 100 μM. The protocol: as §1, with “high mannose” for “fucosylation”, “FITC-labeled Concanavilin A” for “FITC-Lens culinaris agglutinin (FITC-LCA, Vector Laboratories Cat#FL-1041)”

For data set [7], the system named is CS-9 CHO cells. The data set is described as above. The note with it: Cricetulus griseus, 72 h, 3 days. The format is cell-based, Chinese hamster. The protocol:
as §1, with “high mannose” for “fucosylation”, “FITC-labeled Concanavilin A” for “FITC-Lens culinaris agglutinin (FITC-LCA, Vector Laboratories Cat#FL-1041)”

The test system of data set [8] is cell surface protein high mannose in CS-9 CHO cells. In words: Assay for Cell Surface Protein High Mannose (FACS with FITC-labeled Concanavilin A). The note with it: Cricetulus griseus, 72 h, 3 days. The format is cell-based, Chinese hamster. The protocol: Assay for Cell Surface Protein High Mannose
as §1, with “high mannose” for “fucosylation”, “FITC-labeled Concanavilin A” for “FITC-Lens culinaris agglutinin (FITC-LCA, Vector Laboratories Cat#FL-1041)”

Regarding `CC(=O)O[C@@H]1[C@H](OC(C)=O)[C@H](C)O[C@H](CP(=O)(OCOC(=O)C(C)(C)C)OCOC(=O)C(C)(C)C)[C@H]1OC(C)=O` [Example 1, (2S,3S,4R,5R,6S)-2-((bis((pivaloyloxy)methoxy)phosphoryl)methyl)-6-methyltetrahydro-2H-pyran-3,4,5-triyl triacetate], the values for the pIC50 in data set [1] and in data set [4] were 4.68 and less than 4.00, respectively. For the same molecule, the “Incorporation of inhibitor molecule into the glycan” value in data set [2] (320 uM, HILIC with in-line MS) was “No trace of the inhibitor molecule was detectable in the glycan”. For the same molecule, the “Glycan high mannose content” value in data set [2] (320 uM, anti-TRAIL IgG1 glycan, HILIC, DMSO control 12%) came to 13%. The molecule further had a Glycan fucosylated in data set [2] (320 uM, anti-TRAIL IgG1 glycan, HILIC, DMSO control 77%) of 64%. Moreover, the inhibition at 320 µM in data set [2] (Cricetulus griseus, CHO, 240 h, 320 uM added at inoculation, anti-TRAIL IgG1, harvest day 10, read-out: Maximum inhibition of fucosylation (afucosylation)) is roughly 10%. Also, the viability at 3 days, 100 µM in data set [3] came out at 94%. Moreover, in data set [5], the “Stability of inhibitor in the medium” value is listed as “limited stability”.

`CC(=O)OCOP(=O)(C[C@H]1O[C@@H](C)[C@@H](OC(C)=O)[C@@H](OC(C)=O)[C@@H]1OC(C)=O)OCOC(C)=O` [Example 2, (2S,3S,4R,5R,6S)-2-((bis(acetoxymethoxy)phosphoryl)methyl)-6-methyltetrahydro-2H-pyran-3,4,5-triyl triacetate]: the pIC50 in data set [1] was 4.36; in data set [4], less than 4.00. Also, in data set [3], the viability at 3 days, 100 µM was 103%.

Turning to `CC(=O)O[C@H]1[C@H](OC(C)=O)[C@H](CP(=O)(OCOC(=O)C(C)(C)C)OCOC(=O)C(C)(C)C)O[C@@H](C(F)(F)F)[C@H]1OC(C)=O` [Example 3, (2R,3S,4R,5S,6R)-2-((bis((pivaloyloxy)-methoxy)phosphoryl)methyl)-6-(trifluoromethyl)tetrahydro-2H-pyran-3,4,5-triyl triacetate], the pIC50 in data set [1] is 5.15; in data set [4] it was less than 4.00. Besides, in data set [2] (added to cell culture media on a daily basis, 5-100 uM), the “Incorporation of inhibitor into antibody glycan” value is on record as “some incorporation of part of the inhibitor”. The viability at 3 days, 100 µM in data set [3] was 90%.

Take `CC(=O)OC[C@H]1O[C@H](CP(=O)(OCOC(=O)C(C)(C)C)OCOC(=O)C(C)(C)C)[C@@H](OC(C)=O)[C@@H](OC(C)=O)[C@@H]1OC(C)=O` [Example 4, (2R,3R,4S,5S,6S)-2-(acetoxymethyl)-6-((bis((pivaloyloxy)methoxy)phosphoryl)methyl)tetrahydro-2H-pyran-3,4,5-triyl triacetate]: the viability at 3 days, 100 µM in data set [6] stood at 92%. In addition, the pIC50 in data set [7] is less than 4.00; in data set [8], 4.48.

Turning to `CC(=O)N[C@@H]1[C@@H](OC(C)=O)[C@H](OC(C)=O)[C@@H](COC(C)=O)O[C@@H]1CP(=O)(OCOC(=O)C(C)(C)C)OCOC(=O)C(C)(C)C` [Example 5, (((((2S,3R,4R,5S,6R)-3-acetamido-4,5-diacetoxy-6-(acetoxymethyl)tetrahydro-2H-pyran-2-yl)methyl)phosphoryl)bis(oxy))bis(methylene)bis(2,2-dimethylpropanoate)], the viability at 3 days, 100 µM in data set [6] was determined as 88%. For the same molecule, the values for the pIC50 in data set [7] and in data set [8] were less than 4.00 and 5.47, respectively.
